The record followed here is patent US6890886B2, “Agricultural compositions employing organosiloxanes containing polyhydric groups” (General Electric Company, priority 2000, dated 2005).

Data set [1] is described as follows: Aqueous surface tension (Cahn microbalance, sand blasted platinum blade). It counts as physicochemical. Particulars: 0.1 wt % in 0.005M NaCl water (deionized), 25° C. Here is the method:
Surface tension was measured using a Cahn microbalance, with a sand blasted platinum blade as the sensor. Solutions of the various components were prepared at 0.1 wt % in 0.005M NaCl water (Deionized), as an equilibrium aid. Aqueous solutions of these unique compositions provide a significant reduction in surface tension relative to conventional surfactants.

A short description of data set [2]: Spreading of a 10 μL droplet of surfactant solution on polyester film. It counts as physicochemical. Particulars: 10 μL droplet on polyester film (3M, IR 1140), after 30 seconds. As for the experimental part:
Spreading was determined by applying a 10 μL droplet of surfactant solution to a polyester film (3M, IR 1140 transparency film) and measuring the spread diameter after 30 seconds. The solution was applied with an automatic pipette to provide droplets of reproducible volume. Deionized water that was further purified with a Millipore filtration system was used to prepare the surfactant solutions.

Regarding “Me3SiO[MeSi(C3H6O(C2H4O)8H)O]1SiMe3 [SIL-A]”, in data set [1], the “Surface Tension (mN/m)” value was determined as 21 mN/m. Also, the “Spread Diameter (mm) 0.1 wt%” value in data set [2] (0.1 wt% solution) came to 44 mm. Besides, the “Spread Diameter (mm) 0.2 wt%” value in data set [2] (0.2 wt% solution) was 42 mm.
